Assay results: patent publication US12257239B1, “Cytotoxic treatment of cancer cells” (IMAM MOHAMMAD IBN SAUD ISLAMIC UNIVERSITY, priority 2024, dated 2025)
Converted amounts (≈) assume the structure as drawn.

Legend:
[1] = tested on: human non-small cell lung cancer (A549); experiment: Growth inhibition of cancerous cells, A549; format: cell-based; conditions: for IC50: A549
Procedure: (§1) The compound of Formula I was tested for its antitumor activity against various cancer cell lines, in vitro, in non-small cell lung cancer (A549), colorectal carcinoma (HCT116), prostate cancer (PC3), pharynx squamous carcinoma (FaDu), triple-negative breast cancer (MDA-MB-468), cervical cancer (HeLa), and human oral epithelial normal cell line (OEC).

[2] = tested on: pharynx squamous carcinoma (FaDu); experiment: Growth inhibition of cancerous cells, FaDu; format: cell-based; conditions: Homo sapiens
Procedure: as §1

[3] = tested on: triple-negative breast cancer (MDA-MB-468); experiment: Growth inhibition of cancerous cells, MDA-MB-468; format: cell-based; conditions: Homo sapiens; for IC50: MDA-MB-468
Procedure: as §1

cervical cancer (HeLa) = experiment: Growth inhibition of cancerous cells, HeLa; format: cell-based; conditions: Homo sapiens
Procedure: as §1

[4] = tested on: colorectal carcinoma (HCT116); experiment: Growth inhibition of cancerous cells, HCT116; format: cell-based; conditions: Homo sapiens, HCT-116; HCT116, 100 μg/mL; read-out: growth inhibition percentage
Procedure: as §1

prostate cancer (PC3) = experiment: Growth inhibition of cancerous cells, PC3; format: cell-based; conditions: Homo sapiens; PC3, 100 μg/mL; read-out: growth inhibition percentage
Procedure: as §1

[5] = tested on: human oral epithelial normal cell line (OEC); conditions: 100 μg/mL
Procedure: as §1

[6] = 100 μg/mL, read-out: growth inhibition percentage

SMILES | IC50 [1] | IC50 [2] | IC50 [3] | IC50 (cervical cancer (HeLa)) | inhibition at 100 µg/mL ([1]; A549, 100 μg/mL, read-out: growth inhibition percentage) | inhibition at 100 µg/mL [4] | inhibition at 100 µg/mL (prostate cancer (PC3)) | inhibition at 100 µg/mL [2, 6] | inhibition at 100 µg/mL ([3]; MDA-MB-468, 100 μg/mL, read-out: growth inhibition percentage) | inhibition at 100 µg/mL (cervical cancer (HeLa); [6]) | growth inhibition percentage [5]
COc1cccc2c1C(=O)c1c(O)c3c(c(O)c1C2=O)C[C@@](O)(C(=O)CO)C[C@@H]3O[C@H]1C[C@H](N)[C@H](O)[C@H](C)O1 [doxorubicin, reference compound] | 7.63 µg/mL (≈ 14 µM) | 13.2 µg/mL (≈ 24.2 µM) | 7.76 µg/mL (≈ 14.3 µM) | 4.83 µg/mL (≈ 8.89 µM) | – | – | – | – | – | – | –
O=C1S/C(=C\c2cc([N+](=O)[O-])ccc2O)C(=O)N1CCN1C(=O)c2ccccc2C1=O [Formula I, 3-(2-(1,3-dioxoisoindolin-2-yl)ethyl)-5-(2-hydroxy-5-nitrobenzylidene)thiazolidine-2,4-dione] | 6 µg/mL | 5.03 µg/mL | 5.5 µg/mL | 5.03 µg/mL | 78% | 85.7% | 83.8% | 89.1% | 90.8% | 70.8% | 48.89%
